The text below walks through data of US20040122026A1, “Imidazolidine compounds” (Millennium Pharmaceuticals, Inc., priority 2002, published 2004).

This test deals with T1, CXCR3 (Homo sapiens, UniProt P49682).
T1 construct: expressed in transfected cells; membrane preparation
T1 sequence (P49682 1-368): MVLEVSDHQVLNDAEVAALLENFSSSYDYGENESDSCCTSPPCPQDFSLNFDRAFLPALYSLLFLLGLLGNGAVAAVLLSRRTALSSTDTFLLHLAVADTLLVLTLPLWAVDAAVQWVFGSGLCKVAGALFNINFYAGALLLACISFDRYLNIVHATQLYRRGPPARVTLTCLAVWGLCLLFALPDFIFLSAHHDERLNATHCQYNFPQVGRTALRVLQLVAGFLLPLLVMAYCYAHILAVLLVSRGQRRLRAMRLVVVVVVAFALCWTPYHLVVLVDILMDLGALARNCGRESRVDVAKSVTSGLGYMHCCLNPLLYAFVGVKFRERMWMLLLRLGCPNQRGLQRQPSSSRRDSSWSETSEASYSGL
Put plainly: CXCR3/IP-10 radioligand binding (125I-IP-10 competition on CXCR3.L1/2 cell membranes). The note with it: test compound 10 μmol/L; 125I-labeled IP-10 binding to CXCR3.L1/2 transfectant cell membranes; results Table 6. From the text:
The activity of the compounds of the present invention can be assessed using a suitable assay, such as a receptor binding assay, a chemotaxis assay, an extracellular acidification assay or a calcium flux assay (see, for example, Hesselgesser et al., J. Biol. Chem., 273(25): 15687-15692 (1998) and WO 98/02151). For example, as described herein, small organic molecule antagonists of CXCR3/IP-10 binding have been identified utilizing cells engineered to express recombinant human CXCR3 (CXCR3.L1/2) and which bind ^125I-IP-10 and chemotax in response to IP-10, Mig, or I-TAC. Specifically, a high through-put receptor binding assay, which monitors ^125I-IP-10 biding to CXCR3.L1/2 cell membranes, was used to identify small molecule antagonists. Binding assays can be performed using other ligands of CXCR3, such as, Mig, and/or I-TAC.
CXCR3/IP-10 Radioligand Binding:
CXCR3.L1/2 Membrane Preparation:
CXCR3.L1/2 cells were pelleted by centrifugation and stored at −80° C. The cells were lysed by thawing and resuspending at about 1.5×10^7 cells/mL in a hypotonic buffer (5 mmol/L HEPES (pH 7.2), 2 mmol/L EDTA, 10 μg/mL each leupeptin, aprotinin, and chymostatin, and 100 μg/mL PMSF (all from Sigma, St. Louis)). Nuclei and cellular debris are removed by centrifugation ([…], at 4° C.) for 10 min. The supernatant was transferred to chilled centrifuge tubes (Nalge, Rochester, N.Y.) and the membrane fraction was recovered by centrifugation (25,000 g at 4° C.) for 45 min. The membrane pellet was resuspended in freezing buffer (10 mmol/L HEPES (pH 7.2), 300 mmol/L Sucrose, 5 μg/mL each of leupeptin, aprotinin, and chymostatin, and 10 μg/mL PMSF). The total protein concentration was determined using a coomassie blue staining protein concentration assay kit (BioRad). The membrane preparations are aliquoted and stored at −80° C. until time of use.
CXCR3/IP-10 binding was performed in 96-well polypropylene plates (Costar) in a final volume of 0.1 mL of HBB buffer (50 mmol/L Hepes pH 7.4, 1 mmol/L CaCl2, 5 mmol/L MgCl2, 0.02% sodium azide, 0.5% BSA (bovine serum albumin)), containing 1 to 5 μg CXCR3.L1/2 transfectant cell membrane protein and 0.05 to 0.2 nmol/L of ^125I-labeled IP-10 (NEN, Boston, Mass.). Competition binding experiments were performed by including variable concentrations of unlabeled IP-10 or test compound. Nonspecific binding was determined following the addition of a 250 nmol/L unlabelled IP-10. Samples were incubated for 60 min at room temperature, and bound and free tracer (^125I-labeled IP-10) were separated by filtration through 96-well GF/B filterplates presoaked in 0.3% polyethyleneimine. The filters were washed in HBB further supplemented with 0.5 mol/L NaCl, dried, and the amount of bound radioactivity determined by liquid scintillation counting. The competition is presented as the percent specific binding as calculated by 100×[(S−B)/(T−B)], where S is the radioactivity bound for each sample, B is background binding, and T is total bound in the absence of competitors. Duplicates were used throughout the experiments.

For orientation: % inhibition means the change of the read-out against control, counted positive when it falls. A high value points to strong suppression. Turning to `Cc1cc(C)cc(CN2CCN(CCC(=O)N(c3cccc(CN4CCN(C)CC4)c3)C(C)C)C2=C(C#N)C#N)c1` [Compound 23, N-Isopropyl-N-[3-(4-methyl-1-piperazinylmethyl)phenyl]-3-[3-(3,5-dimethylbenzyl)-2-dicyanomethylideneimidazolidin-1-yl]propionamide], the “% inhibition at 10 μmol/L” value is reported as 92%.
Usually inhibition stands for the drop in the measured response relative to a control, in per cent. With `CCN(CC)Cc1cccc(N(C(=O)CCN2CCN(Cc3cc(C)cc(C)c3)C2=C(C#N)C#N)C(C)C)c1` [Compound 24, N-Isopropyl-N-[3-(diethylaminomethyl)phenyl]-3-[3-(3,5-dimethylbenzyl)-2-dicyanomethylideneimidazolidin-1-yl]propionamide], the inhibition at 10 µM turned out to be 90%.
Take `CCOC(=O)C1CCN(Cc2cccc(N(C(=O)CCN3CCN(Cc4cc(C)cc(C)c4)C3=C(C#N)C#N)C(C)C)c2)CC1` [Compound 25, N-Isopropyl-N-[3-(4-ethoxycarbonylpiperidinomethyl)phenyl]-3-[3-(3,5-dimethylbenzyl)-2-dicyanomethylideneimidazolidin-1-yl]propionamide]: the inhibition at 10 µM came out at 107%.
Same read-out and setting: in the case of `Cc1cc(C)cc(CN2CCN(CCC(=O)N(c3cccc(CN(CCO)CCO)c3)C(C)C)C2=C(C#N)C#N)c1` [Compound 26, N-Isopropyl-N-[3-(bis(2-hydroxyethyl)aminomethyl)phenyl]-3-[3-(3,5-dimethylbenzyl)-2-dicyanomethylideneimidazolidin-1-yl]propionamide] it was 93%; in that of `Cc1cc(C)cc(CN2CCN(CCC(=O)N(c3cccc(CN(C)CCO)c3)C(C)C)C2=C(C#N)C#N)c1` [Compound 27, N-Isopropyl-N-[3-[(N-(2-hydroxyethyl)-N-methylamino)methyl]phenyl]-3-[3-(3,5-dimethylbenzyl)-2-dicyanomethylideneimidazolidin-1-yl]propionamide], 92%.
As for “N-Isopropyl-N-[3-(piperidinomethyl)phenyl]-3-[3-(1-naphthalenylmethyl)-2-dicyanomethylidene imidazolidin-1-yl]propionamide [Compound 16]”, the “% inhibition at 10 μmol/L” value is recorded as 95%.
